Test results as given in ChEMBL document CHEMBL4002566, “S-substituted 3,5-dinitrophenyl 1,3,4-oxadiazole-2-thiols and tetrazole-5-thiols as highly efficient antitubercular agents” (Eur J Med Chem, 2017).
≈ marks a conversion by molar mass, not a printed value.

Experiments:
Type in all cases: functional
[1] = test system: Mycobacterium tuberculosis; experiment: Antimycobacterial activity against multidrug-resistant Mycobacterium tuberculosis Praha 1 after 14 days by micromethod
[2] = test system: Mycobacterium tuberculosis; experiment: Antimycobacterial activity against multidrug-resistant Mycobacterium tuberculosis Praha 4 after 14 days by micromethod
[3] = test system: Mycobacterium tuberculosis; experiment: Antimycobacterial activity against multidrug-resistant Mycobacterium tuberculosis Praha 131 after 14 days by micromethod
[4] = test system: Mycobacterium tuberculosis; experiment: Antimycobacterial activity against multidrug-resistant Mycobacterium tuberculosis 9449/2007 after 14 days by micromethod
[5] = test system: Mycobacterium tuberculosis; experiment: Antimycobacterial activity against multidrug-resistant Mycobacterium tuberculosis 234/2005 after 14 days by micromethod
[6] = test system: Mycobacterium tuberculosis; experiment: Antimycobacterial activity against multidrug-resistant Mycobacterium tuberculosis 7357/1998 after 14 days by micromethod
[7] = test system: Mycobacterium tuberculosis; experiment: Antimycobacterial activity against multidrug-resistant Mycobacterium tuberculosis 8666/2010 after 14 days by micromethod
[8] = test system: Mycobacterium tuberculosis; experiment: Antimycobacterial activity against multidrug-resistant Mycobacterium tuberculosis Praha 1 after 21 days by micromethod; details: Praha 1, 504 h
[9] = test system: Mycobacterium tuberculosis; experiment: Antimycobacterial activity against multidrug-resistant Mycobacterium tuberculosis Praha 4 after 21 days by micromethod; details: Praha 4, 504 h
[10] = test system: Mycobacterium tuberculosis; experiment: Antimycobacterial activity against multidrug-resistant Mycobacterium tuberculosis Praha 131 after 21 days by micromethod; details: Praha 131, 504 h
[11] = test system: Mycobacterium tuberculosis; experiment: Antimycobacterial activity against multidrug-resistant Mycobacterium tuberculosis 9449/2007 after 21 days by micromethod; details: 9449/2007, 504 h
[12] = test system: Mycobacterium tuberculosis; experiment: Antimycobacterial activity against multidrug-resistant Mycobacterium tuberculosis 234/2005 after 21 days by micromethod; details: 234/2005, 504 h
[13] = test system: Mycobacterium tuberculosis; experiment: Antimycobacterial activity against multidrug-resistant Mycobacterium tuberculosis 7357/1998 after 21 days by micromethod; details: 7357/1998, 504 h
[14] = test system: Mycobacterium tuberculosis; experiment: Antimycobacterial activity against multidrug-resistant Mycobacterium tuberculosis 8666/2010 after 21 days by micromethod; details: 8666/2010, 504 h

Compound | MIC ([1]; Praha 1, 336 h) [µM] | MIC ([2]; Praha 4, 336 h) [µM] | MIC ([3]; Praha 131, 336 h) [µM] | MIC ([4]; 9449/2007, 336 h) [µM] | MIC ([5]; 234/2005, 336 h) [µM] | MIC ([6]; 7357/1998, 336 h) [µM] | MIC ([7]; 8666/2010, 336 h) [µM] | MIC [8] [µM] | MIC [9] [µM] | MIC [10] [µM] | MIC [11] [µM] | MIC [12] [µM] | MIC [13] [µM] | MIC [14] [µM] | also measured
NCC[C@H](O)C(=O)N[C@@H]1C[C@H](N)[C@@H](O[C@H]2O[C@H](CN)[C@@H](O)[C@H](O)[C@H]2O)[C@H](O)[C@H]1O[C@H]1O[C@H](CO)[C@@H](O)[C@H](N)[C@H]1O [AMIKACIN] | 0.5 (≈ 0.293 µg/mL) | 1 (≈ 0.586 µg/mL) | > 32 | 0.5 (≈ 0.293 µg/mL) | 0.5 (≈ 0.293 µg/mL) | 1 (≈ 0.586 µg/mL) | 2 (≈ 1.17 µg/mL) |  |  |  |  |  |  |  | 
O=[N+]([O-])c1cc(-c2nnc(SCc3ccc(Br)cc3)o2)cc([N+](=O)[O-])c1 | 0.03 (≈ 0.0131 µg/mL) | 0.03 (≈ 0.0131 µg/mL) | 0.03 (≈ 0.0131 µg/mL) | 0.03 (≈ 0.0131 µg/mL) | 0.03 (≈ 0.0131 µg/mL) | 0.03 (≈ 0.0131 µg/mL) | 0.03 (≈ 0.0131 µg/mL) | 0.06 (≈ 0.0262 µg/mL) | 0.06 (≈ 0.0262 µg/mL) | 0.06 (≈ 0.0262 µg/mL) | 0.06 (≈ 0.0262 µg/mL) | 0.06 (≈ 0.0262 µg/mL) | 0.06 (≈ 0.0262 µg/mL) | 0.06 (≈ 0.0262 µg/mL) | 
COc1ccc(CSc2nnc(-c3cc([N+](=O)[O-])cc([N+](=O)[O-])c3)o2)cc1 | 0.03 (≈ 0.0117 µg/mL) | 0.03 (≈ 0.0117 µg/mL) | 0.03 (≈ 0.0117 µg/mL) | 0.03 (≈ 0.0117 µg/mL) | 0.03 (≈ 0.0117 µg/mL) | 0.03 (≈ 0.0117 µg/mL) | 0.03 (≈ 0.0117 µg/mL) | 0.06 (≈ 0.0233 µg/mL) | 0.06 (≈ 0.0233 µg/mL) | 0.06 (≈ 0.0233 µg/mL) | 0.06 (≈ 0.0233 µg/mL) | 0.06 (≈ 0.0233 µg/mL) | 0.06 (≈ 0.0233 µg/mL) | 0.06 (≈ 0.0233 µg/mL) | 
CC[C@@H](CO)NCCN[C@@H](CC)CO [ETHAMBUTOL] | 32 (≈ 6.54 µg/mL) | 16 (≈ 3.27 µg/mL) | 32 (≈ 6.54 µg/mL) | 8 (≈ 1.63 µg/mL) | 16 (≈ 3.27 µg/mL) | 16 (≈ 3.27 µg/mL) | 16 (≈ 3.27 µg/mL) |  |  |  |  |  |  |  | 
O=[N+]([O-])c1cc(-n2nnnc2SCc2ccc(Cl)c(Cl)c2)cc([N+](=O)[O-])c1 | 0.25 (≈ 0.107 µg/mL) | 0.25 (≈ 0.107 µg/mL) | 0.25 (≈ 0.107 µg/mL) | 0.25 (≈ 0.107 µg/mL) | 0.25 (≈ 0.107 µg/mL) | 0.25 (≈ 0.107 µg/mL) | 0.25 (≈ 0.107 µg/mL) | 0.5 (≈ 0.214 µg/mL) | 0.25 (≈ 0.107 µg/mL) | 0.5 (≈ 0.214 µg/mL) | 0.25 (≈ 0.107 µg/mL) | 0.25 (≈ 0.107 µg/mL) | 0.5 (≈ 0.214 µg/mL) | 0.25 (≈ 0.107 µg/mL) | 
GENTAMICIN |  |  |  |  |  |  |  |  |  |  |  |  |  |  | MIC [1]: 1 µM; MIC [2]: 0.5 µM; MIC [3]: > 8 µM; MIC [4]: 1 µM; MIC [5]: 0.25 µM; MIC [6]: 1 µM; MIC [7]: 2 µM
CC1COc2c(N3CCN(C)CC3)c(F)cc3c(=O)c(C(=O)O)cn1c23 (stereo not drawn) [OFLOXACIN] | 1 (≈ 0.361 µg/mL) | > 16 | 16 (≈ 5.78 µg/mL) | 2 (≈ 0.723 µg/mL) | 0.5 (≈ 0.181 µg/mL) | 8 (≈ 2.89 µg/mL) | 8 (≈ 2.89 µg/mL) |  |  |  |  |  |  |  | 
O=[N+]([O-])c1cc(-c2nnc(SCc3ccc(Cl)c(Cl)c3)o2)cc([N+](=O)[O-])c1 | 0.03 (≈ 0.0128 µg/mL) | 0.03 (≈ 0.0128 µg/mL) | 0.03 (≈ 0.0128 µg/mL) | 0.03 (≈ 0.0128 µg/mL) | 0.03 (≈ 0.0128 µg/mL) | 0.03 (≈ 0.0128 µg/mL) | 0.03 (≈ 0.0128 µg/mL) | 0.03 (≈ 0.0128 µg/mL) | 0.03 (≈ 0.0128 µg/mL) | 0.03 (≈ 0.0128 µg/mL) | 0.03 (≈ 0.0128 µg/mL) | 0.03 (≈ 0.0128 µg/mL) | 0.03 (≈ 0.0128 µg/mL) | 0.03 (≈ 0.0128 µg/mL) | 
O=[N+]([O-])c1cc(-c2nnc(SCc3cccc(Cl)c3)o2)cc([N+](=O)[O-])c1 | 0.03 (≈ 0.0118 µg/mL) | 0.03 (≈ 0.0118 µg/mL) | 0.03 (≈ 0.0118 µg/mL) | 0.03 (≈ 0.0118 µg/mL) | 0.03 (≈ 0.0118 µg/mL) | 0.03 (≈ 0.0118 µg/mL) | 0.03 (≈ 0.0118 µg/mL) | 0.06 (≈ 0.0236 µg/mL) | 0.06 (≈ 0.0236 µg/mL) | 0.06 (≈ 0.0236 µg/mL) | 0.06 (≈ 0.0236 µg/mL) | 0.06 (≈ 0.0236 µg/mL) | 0.06 (≈ 0.0236 µg/mL) | 0.06 (≈ 0.0236 µg/mL) | 
